# From US12252488B2 (Nimbus Saturn, Inc., priority 2021, dated 2025)
# Target: T1, HPK1 (Homo sapiens, UniProt Q92918)
# T1 construct: purchased Invitrogen
# Test: HPK1 biochemical enzyme assay (microfluidic mobility shift assay)
# Conditions: 1000 uM (1 mM) ATP; Caliper mobility shift; 1.5 nM HPK1; 30 min preincubation; read-out: HPK1 1000UMATP caliper IC50
# Description: Example 33. HPK1 Biochemical Enzyme Assay
# HPK1 biochemical enzyme assay: HPK1 enzyme inhibition was measured using a microfluidic mobility shift assay. Reactions were performed in a 384-well plate, containing 1.5 nM HPK1 (Invitrogen), in assay buffer (Carna Biosciences; pH 7.4). Test compounds were titrated in ten point curves (top final assay concentration 3 μM), and preincubated with enzyme/substrate mix for 30 min prior to initiation of the reaction by addition of ATP (1 mM final concentration) and substrate (1 μM final concentration; Carna Biosciences) diluted in assay buffer supplemented by MgCl2 (final assay concentration of 5 mM). Following 60 min incubation at RT, the reaction was terminated by addition of 60 μl/well termination buffer (Carna Biosciences) and signal determination using a Caliper EZ Reader (Perkin Elmer, UK).
# The compound numbers correspond to the compound numbers in Table 1. Compounds having an activity designated as “A” provided an IC50≤100 nM; compounds having an activity designated as “B” provided an IC50>100 nM and ≤1,000 nM; compounds having an activity designated as “C” provided an IC50>1,000 nM.
# T1 sequence (Q92918 whole entry): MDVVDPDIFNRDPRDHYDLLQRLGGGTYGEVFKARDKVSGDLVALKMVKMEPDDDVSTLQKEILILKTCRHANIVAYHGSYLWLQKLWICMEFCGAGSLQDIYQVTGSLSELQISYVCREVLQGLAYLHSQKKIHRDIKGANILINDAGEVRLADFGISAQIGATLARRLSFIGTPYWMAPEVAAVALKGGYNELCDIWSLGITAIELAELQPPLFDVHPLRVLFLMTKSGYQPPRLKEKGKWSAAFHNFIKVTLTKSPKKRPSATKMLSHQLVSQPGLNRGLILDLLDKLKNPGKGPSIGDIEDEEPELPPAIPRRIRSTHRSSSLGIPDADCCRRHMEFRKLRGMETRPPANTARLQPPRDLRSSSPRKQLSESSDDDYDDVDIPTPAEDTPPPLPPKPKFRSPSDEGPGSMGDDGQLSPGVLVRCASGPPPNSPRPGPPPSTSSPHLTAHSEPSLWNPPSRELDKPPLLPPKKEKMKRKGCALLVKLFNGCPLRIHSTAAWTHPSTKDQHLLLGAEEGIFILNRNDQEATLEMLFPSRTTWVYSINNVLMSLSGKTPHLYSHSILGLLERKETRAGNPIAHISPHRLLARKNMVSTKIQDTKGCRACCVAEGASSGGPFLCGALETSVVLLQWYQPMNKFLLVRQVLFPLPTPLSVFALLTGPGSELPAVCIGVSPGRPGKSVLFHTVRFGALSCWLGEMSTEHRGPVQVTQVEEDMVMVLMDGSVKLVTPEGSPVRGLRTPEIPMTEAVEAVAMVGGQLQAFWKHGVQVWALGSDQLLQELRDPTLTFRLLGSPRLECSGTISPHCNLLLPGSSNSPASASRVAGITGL
row,IC50 [nM],Structure (SMILES)
1,100 to 1000,"CC(=O)N1CCC(c2cc(Nc3ccc(N4CCC(O)CC4)cn3)c3c(=O)[nH]ccc3n2)CC1 [I-63, 2-(1-acetyl-4-piperidyl)-4-[[5-(4-hydroxy-1-piperidyl)-2-pyridyl]amino]-6H-1,6-naphthyridin-5-one]"
2,100 to 1000,"O=c1[nH]ccc2nc(-c3ccccc3F)cc(Nc3ccc(N4CCC(O)CC4)cn3)c12 [I-64, 2-(2-fluoro-phenyl)-4-[[5-(4-hydroxy-1-piperidyl)-2-pyridyl]amino]-6H-1,6-naphthyridin-5-one]"
3,100 to 1000,"Cc1cccc(-c2cc(Nc3ccc(N4CCC(O)CC4)cn3)c3c(=O)[nH]ccc3n2)c1F [I-68, 2-(2-fluoro-3-methyl-phenyl)-4-[[5-(4-hydroxy-1-piperidyl)-2-pyridyl]amino]-6H-1,6-naphthyridin-5-one]"
4,100 to 1000,"O=C(c1ccc(-c2cc(Nc3ccc(N4CCC(O)CC4)cn3)c3c(=O)[nH]ccc3n2)c(F)c1)N1CCCCC1 [I-71, 2-[2-fluoro-4-(piperidine-1-carbonyl)phenyl]-4-[[5-(4-hydroxy-1-piperidyl)-2-pyridyl]amino]-6H-1,6-naphthyridin 5-one]"
5,≤ 100,"CN1CCC(c2cc(Nc3ccc(N4CCC(O)CC4)cn3)c3c(=O)[nH]ccc3n2)CC1 [I-75, 4-[[5-(4-hydroxy-1-piperidyl)-2-pyridyl]amino]-2-(1-methyl-4-piperidyl)-6H-1,6-naphthyridin-5-one]"
6,100 to 1000,"CC(O)(c1cc(Nc2ccc(N3CCC(O)CC3)cn2)c2c(=O)[nH]ccc2n1)C(F)(F)F (stereo not shown) [I-77, 4-[[5-(4-hydroxy-1-piperidyl)-2-pyridyl]amino]-2-(2,2,2-trifluoro-1-hydroxy-1-methyl-ethyl)-6H-1,6-naphthyridin-5-one]"
7,> 1000,"CC(=O)NC1CCCN(c2cc(Nc3ccc(N4CCC(O)CC4)cn3)c3c(=O)[nH]ccc3n2)C1 (stereo not shown) [I-78, N-[1-[4-[[5-(4-hydroxy-1-piperidyl)-2-pyridyl]amino]-5-oxo-6H-1,6-naphthyridin-2-yl]-3-piperidyl] acetamide]"
8,100 to 1000,"O=C(c1ccc(F)c(-c2cc(Nc3ccc(N4CCC(O)CC4)cn3)c3c(=O)[nH]ccc3n2)c1)N1CCOCC1 [I-80, 2-[2-fluoro-5-(morpholine-4-carbonyl)phenyl]-4-[[5-(4-hydroxy-1-piperidyl)-2-pyridyl]amino]-6H-1,6-naphthyridin-5-one]"
9,≤ 100,"O=c1[nH]ccc2nc(N3CCC[C@H](O)C3)cc(Nc3ccc(N4CCC(O)CC4)cn3)c12 [I-81, 2-[(3S)-3-hydroxy-1-piperidyl]-4-[[5-(4-hydroxy-1-piperidyl)-2-pyridyl]amino]-6H-1,6-naphthyridin-5-one]"
10,100 to 1000,"O=c1[nH]ccc2nc(N3CCC[C@@H](O)C3)cc(Nc3ccc(N4CCC(O)CC4)cn3)c12 [I-82, 2-[(3R)-3-hydroxy-1-piperidyl]-4-[[5-(4-hydroxy-1-piperidyl)-2-pyridyl]amino]-6H-1,6-naphthyridin-5-one]"
11,100 to 1000,"O=c1[nH]ccc2nc(N3CCCCC3)cc(Nc3ccc(N4CCC(O)CC4)cn3)c12 [I-83, 4-[[5-(4-hydroxy-1-piperidyl)-2-pyridyl]amino]-2-(1-piperidyl)-6H-1,6-naphthyridin-5-one]"
12,100 to 1000,"O=c1[nH]ccc2nc(N3CCCC3)cc(Nc3ccc(N4CCC(O)CC4)cn3)c12 [I-84, 4-[[5-(4-hydroxy-1-piperidyl)-2-pyridyl]amino]-2-pyrrolidin-yl-6H-1,6-naphthyridin-5-one]"

# Second part, the compound before the results:
row,Structure (SMILES),IC50 [nM]
1,"CCCc1cc(Nc2ccc(N3CCC(O)CC3)cn2)c2c(=O)[nH]cnc2n1 [I-60, 5-[[5-(4-hydroxy-1-piperidyl)-2-pyridyl]amino]-7-propyl-3H-pyrido[2,3-d]pyrimidin-4-one]",100 to 1000
2,"O=c1[nH]ccc2nc(-c3ccc(OCc4ccncc4)cc3F)cc(Nc3ccc(N4CCC(O)CC4)cn3)c12 [I-61, 2-[2-fluoro-4-(4-pyridyl-methoxy)phenyl]-4-[[5-(4-hydroxy-1-piperidyl)-2-pyridyl]amino]-6H-1,6-naphthyridin-5-one]",100 to 1000
3,"CN(C)C(=O)c1ccc(-c2cc(Nc3ccc(N4CCC(O)CC4)cn3)c3c(=O)[nH]ccc3n2)c(F)c1 [I-62, 3-fluoro-4-[4-[[5-(4-hydroxy-1-piperidyl)-2-pyridyl]amino]-5-oxo-6H-1,6-naphthyridin-2-yl]-N,N-dimethyl-benzamdie]",100 to 1000
4,"COc1cccc(-c2cc(Nc3ccc(N4CCC(O)CC4)cn3)c3c(=O)[nH]ccc3n2)c1F [I-65, 2-(2-fluoro-3-methoxy-phenyl)-4-[[5-(4-hydroxy-1-piperidyl)-2-pyridyl]amino]-6H-1,6-naphthyridin-5-one]",100 to 1000
5,"CCOc1ccc(F)c(-c2cc(Nc3ccc(N4CCC(O)CC4)cn3)c3c(=O)[nH]ccc3n2)c1 [I-66, 2-(5-ethoxy-2-fluoro-phenyl)-4-[[5-(4-hydroxy-1-piperidyl)-2-pyridyl]amino]-6H-1,6-naphthyridin-5-one]",100 to 1000
6,"CC(C)Oc1ccc(F)c(-c2cc(Nc3ccc(N4CCC(O)CC4)cn3)c3c(=O)[nH]ccc3n2)c1 [I-67, 2-(2-fluoro-5-isopropoxy-phenyl)-4-[[5-(4-hydroxy-1-piperidyl)-2-pyridyl]amino]-6H-1,6-naphthyridin-5-one]",100 to 1000
7,"CC(C)(O)c1ccc(-c2cc(Nc3ccc(N4CCC(O)CC4)cn3)c3c(=O)[nH]ccc3n2)c(F)c1 [I-69, 2-[2-fluoro-4-(1-hydroxy-1-methyl-ethyl)phenyl]-4-[[5-(4-hydroxy-1-piperidyl)-2-pyridyl]amino]-6H-1,6-naphthyridin-5-one]",100 to 1000
8,"CNC(=O)c1ccc(-c2cc(Nc3ccc(N4CCC(O)CC4)cn3)c3c(=O)[nH]ccc3n2)c(F)c1 [I-70, 3-fluoro-4-[4-[[5-(4-hydroxy-1-piperidyl)-2-pyridyl]amino]-5-oxo-6H-1,6-naphthyridin-2-yl]-N-methyl-benzamide]",100 to 1000
9,"NC(=O)c1ccc(-c2cc(Nc3ccc(N4CCC(O)CC4)cn3)c3c(=O)[nH]ccc3n2)c(F)c1 [I-72, 3-fluoro-4-[4-[[5-(4-hydroxy-1-piperidyl)-2-pyridyl]amino]-5-oxo-6H-1,6-naphthyridin-2-yl] benzamide]",100 to 1000
10,"CN(C)Cc1ccc(-c2cc(Nc3ccc(N4CCC(O)CC4)cn3)c3c(=O)[nH]ccc3n2)c(F)c1 [I-74, 2-[4-[(dimethyl-amino)methyl]-2-fluoro-phenyl]-4-[[5-(4-hydroxy-1-piperidyl)-2-pyridyl]amino]-6H-1,6-naphthyridin-5-one]",≤ 100
11,"CC(=O)Nc1ccc(F)c(-c2cc(Nc3ccc(N4CCC(O)CC4)cn3)c3c(=O)[nH]ccc3n2)c1 [I-76, N-[4-fluoro-3-[4-[[5-(4-hydroxy-1-piperidyl)-2-pyridyl]amino]-5-oxo-6H-1,6-naphthyridin-2-yl]phenyl] acetamide]",100 to 1000
12,"CN(C)C(=O)c1ccc(F)c(-c2cc(Nc3ccc(N4CCC(O)CC4)cn3)c3c(=O)[nH]ccc3n2)c1 [I-79, 4-fluoro-3-[4-[[5-(4-hydroxy-1-piperidyl)-2-pyridyl]amino]-5-oxo-6H-1,6-naphthyridin-2-yl]-N,N-dimethyl-benzamide]",100 to 1000
13,"CNC(=O)c1ccc(F)c(-c2cc(Nc3ccc(N4CCC(O)CC4)cn3)c3c(=O)[nH]ccc3n2)c1 [I-85, 4-fluoro-3-[4-[[5-(4-hydroxy-1-piperidyl)-2-pyridyl]amino]-5-oxo-6H-1,6-naphthyridin-2-yl]-N-methyl-benzamide]",100 to 1000
